Test results taken from patent US20040120938A1, “Ingestible compositions comprising antibacterial agents” (The University of Bath, priority 1998, published 2004).
Like-named read-outs stand apart in the source and are kept apart here.

Key:
[1] = test system: nitric oxide (NO) release; experiment: NO release from full fat milk with nitrite and NADH under hypoxia (Test 5); assay type: biochemical; conditions: inhibitor 100 μM; for inhibition of the increased NO release of milk gone off at 4° C.: milk kept at 4° C. more than 3 days
Protocol: (§1) The production of nitric oxide in the following tests and examples was analysed using an ozone chemiluminescence assay in a continuous flow apparatus (Sievers NOA 280) that allows the real time analysis of NO production. The apparatus was modified to allow a constant stream of nitrogen to flow into the reaction chamber. Chemiluminescence data were collected by a data acquisition system; the mean NO produced in parts per billion (ppb) was calculated from readings taken every second and shown as ppb or mV.
(§2) Progress curves, of molar production of NO against time, were calculated by taking into account the gas flow and the mean level of NO. Molar production of NO was expressed as ppb/sec or mV/sec. Reactions were carried out in a final volume of 1 ml at 37° C. in an atmosphere of <1% oxygen (Stathkelvin combination needle oxygen electrode, Diamond General Corp.).
(§3) To the “substrates” bijou, 200 μl of 100 mM stock sodium nitrite was added together with 200 μl of the 5 mM reduced NADH to give an assay concentration of 20 mM nitrite and 1 mM reduced NADH.
(§4) To the “milk” bijou were added 600 μl of milk sample to give an assay volume of 1 ml.
(f) At t=5 minutes, the contents of the “milk” bijou were injected into the reaction cell using a 1 ml syringe and the release of NO was monitored for a further 20 minutes. The set up was such that the reaction cell was a sealed system having an inlet gas flow of 200 ml/min and a sample extraction flow to the NOA-280 of 200 ml/min. The steady-state generation of NO (which corresponded to a plateau region on the trace of the NO production) was noted to give the mV/s release of NO from the 1 ml assay volume.
Full fat milk was assayed with 20 mM nitrite and 1 mM NADH as described above in Test 1. […] 600 μl of milk was used in each test giving a protein content in each assay of 20.4 mg.
The milk was taken and divided into two halves. One was kept at 4° C., and the other at −20° C. Samples of the milk were taken over several days and the generation of NO was investigated using the method described above.

[2] = target: T1, bovine xanthine oxidase (XOR) (Bos taurus, UniProt P80457); experiment: NO release by XOR with known XOR inhibitors (Test 4); assay type: biochemical; conditions: inhibitor 100 μM in the XOR/nitrite/NADH assay of Test 1
T1 construct: purchased Biozyme, Blaenavon, UK batch 104AX
T1 sequence (P80457 whole entry): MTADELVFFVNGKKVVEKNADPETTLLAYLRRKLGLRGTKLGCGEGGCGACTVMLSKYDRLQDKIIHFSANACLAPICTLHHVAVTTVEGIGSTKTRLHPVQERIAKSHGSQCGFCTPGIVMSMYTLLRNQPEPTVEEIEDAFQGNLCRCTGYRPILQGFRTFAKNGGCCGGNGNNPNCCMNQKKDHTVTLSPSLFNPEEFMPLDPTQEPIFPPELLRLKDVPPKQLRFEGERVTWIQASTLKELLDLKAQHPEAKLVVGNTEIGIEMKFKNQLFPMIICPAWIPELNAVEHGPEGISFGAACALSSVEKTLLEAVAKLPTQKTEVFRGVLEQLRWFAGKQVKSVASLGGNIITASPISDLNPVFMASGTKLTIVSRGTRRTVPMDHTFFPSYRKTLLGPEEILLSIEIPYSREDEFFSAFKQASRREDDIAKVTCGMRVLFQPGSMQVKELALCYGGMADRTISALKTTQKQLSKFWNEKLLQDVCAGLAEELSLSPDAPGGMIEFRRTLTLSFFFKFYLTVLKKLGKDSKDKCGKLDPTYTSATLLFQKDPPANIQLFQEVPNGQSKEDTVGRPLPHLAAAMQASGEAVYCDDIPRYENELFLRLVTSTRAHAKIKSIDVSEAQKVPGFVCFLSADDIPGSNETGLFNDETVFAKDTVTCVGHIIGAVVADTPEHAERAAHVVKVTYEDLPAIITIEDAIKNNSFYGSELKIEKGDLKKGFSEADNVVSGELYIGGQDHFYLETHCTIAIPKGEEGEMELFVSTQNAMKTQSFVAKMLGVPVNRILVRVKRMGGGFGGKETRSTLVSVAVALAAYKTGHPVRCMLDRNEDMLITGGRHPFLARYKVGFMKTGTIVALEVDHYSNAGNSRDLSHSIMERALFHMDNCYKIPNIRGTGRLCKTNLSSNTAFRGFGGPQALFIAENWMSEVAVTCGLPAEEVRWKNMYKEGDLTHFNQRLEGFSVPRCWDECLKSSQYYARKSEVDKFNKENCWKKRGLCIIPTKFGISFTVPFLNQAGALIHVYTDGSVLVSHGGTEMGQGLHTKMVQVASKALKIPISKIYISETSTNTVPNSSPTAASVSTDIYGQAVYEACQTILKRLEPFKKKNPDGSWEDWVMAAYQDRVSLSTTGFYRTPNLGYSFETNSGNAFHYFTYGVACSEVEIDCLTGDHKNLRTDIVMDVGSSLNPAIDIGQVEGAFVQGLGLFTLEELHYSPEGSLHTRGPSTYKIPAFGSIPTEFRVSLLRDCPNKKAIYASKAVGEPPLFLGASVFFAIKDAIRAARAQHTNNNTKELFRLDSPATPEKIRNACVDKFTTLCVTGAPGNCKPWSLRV
Protocol: Bovine xanthine oxidase was diluted with PBS as indicated in Table 1 below to give 300 μl of enzyme mixture. The enzyme mixture (300 μl) was mixed with 700 μl of a substrate mixture to give an assay volume of 1 ml. The substrate mixture comprised nitrite which was added to the assay to give a concentration of 1 mM and NADH which was added to give a concentration of 0.3 mM. Where, for example in Tests 2 to 4 below, additional components are added to the sample, the amount of PBS is adjusted accordingly to give an assay volume of 1 ml. The sample was placed in the reaction vessel of the NO determination apparatus under a nitrogen atmosphere and the generation of NO was measured and the results calculated as a steady state rate in mV/s. […] Two different inhibitors were used. Oxypurinol was used at a concentration of 100 μM. Oxypurinol is a molybdenum site-specific inhibitor. Diphenyliodonium (DPI) was used at a concentration of 100 μM. DPI is a FAD site inhibitor.

[3] = test system: nitric oxide (NO) release; experiment: NO release from formula feeds with nitrite and NADH (Test 7); assay type: biochemical; conditions: inhibitor 100 μM
Protocol: as §1, §2, §3, §4
(f) At t=5 minutes, the contents of the “milk” bijou were injected into the reaction cell using a 1 ml syringe and the release of NO was monitored for a further 20 minutes. […]

[4] = test system: Staphylococcus aureus 6751; experiment: Bacterial growth rate by optical density, 96 well plate (Tests 8(f), 8(g)); assay type: cell-based
Protocol: (§5) Bacteria were seeded into nutrient broth (NB) and grown over night at 37° C. The culture was then counted and normalised to give a final cell concentration of 1.8×10^7 cells well^−1 into the wells of a 96 well plate in fresh nutrient broth. The optical density of each well was monitored every 15 minutes as a measure of the growth rate of each bacterial species. Growth curves were generated for each species and the maximal rate of growth (logarithmic phase) was measured. Cells were treated to a range of experimental conditions in which the growth rate of cells was related to a control of untreated cells. The results were expressed as a percentage of the growth rate of the control cells.
(§6) (i) At a fixed concentration of hypoxanthine (100 μM) a range of purified XO protein concentrations were added at time 0 minutes. The optical density was followed and the growth rate calculated.
(§7) (ii) The growth rate was also measured in relation to the concentration of hypoxanthine, using 30 μg of XO with cells seeded as described above.
(§8) (iv) The effect of XO hypoxanthine addition was measured on the growth rate of a range of bacterial species with 30 […] XO at varying hypoxanthine concentrations using cells seeded as described above.

Lactobacillus casei 6375 = experiment: as above; assay type: cell-based
Protocol: as §5, §6, §7, §8

Micrococcus sp = conditions: read-out: Half maximal concentration H2O2, bolus at beginning of logarithmic growth
Protocol: as §5, §8

Bacillus sp = conditions: read-out: Half maximal concentration H2O2, bolus at beginning of logarithmic growth
Protocol: as §5, §8

[5] = test system: bacteria in pasteurised semi skimmed milk; conditions: 100 μM in pasteurised semi skimmed milk, 4-8° C., 8 days
Protocol: Pasteurised semi skimmed milk 1 ml was aliquoted into 7 sterile plastic bijou bottles comprising control and treated hypoxanthine (Hxan) groups. […] The samples were stored refrigerated at 4-8° C. until required on a specific day when a control and treated sample was incubated at 37° C. for 30 minutes. A 100 μl aliquot was taken from each sample and spread onto nutrient agar which was then incubated over night at 37° C. The total number of colonies formed regardless of type was counted and expressed for each treatment as the colony forming units per ml of the original test sample (CFU ml^−1).

Escherichia coli NCTC 86 = experiment: Peroxynitrite effect on cell viability, viable colony count (Test 8(a)); assay type: cell-based; conditions: E. coli; for IC50: Escherichia coli, NCTC86
Protocol: To obtain cells used in this test, the infective bacterial strain Escherichia coli NCTC 86 (E. coli) was cultured on nutrient agar at 37° until colony formation occurred, usually overnight. This stock culture was used for subsequent experiments including sub-culturing in nutrient broth and plated onto agar weekly. Experimental cultures of E. coli were set up overnight in nutrient broth from single colonies on an agar plate. Cells were harvested and counted using a standard curve of known absorbance at 470 nm against viable cell count. Peroxynitrite was generated by the method of Crow et al, Biochem. 34, p. 3544-3552 (1995). […] The concentration of ONOO^− formed was measured using an absorption coefficient of 1670 M^−1 cm^−1 in a spectrophotometer at a wavelength of 303 nm. Solutions of different concentrations for use in (a) below were obtained by dilution of the product solution using PBS. Cells cultured as described above were diluted to suitable working concentrations (10^4-10^5 Cells Ml^−1) in sterile phosphate buffered saline (PBS). ONOO^− at a range of concentrations from […] to 0.01 μm was added as a bolus dose to cells and incubated at room temperature for ten minutes. Aliquots were taken from the cell cultures and plated on to nutrient agar and incubated in a warm room at 37° C. overnight. Viable cells formed colonies on the agar and were counted. The number of colonies formed was related to an untreated control and a graph of the results is shown in FIG. 1, which illustrates the effect of ONOO^− on cell viability.

E. coli = experiment: Peroxynitrite scavenger and XO systems on bacterial growth curves in nutrient broth (Test 8(d)); assay type: cell-based; conditions: 100 μM added at 1 hour; 21% oxygen saturation
Protocol: E. coli were seeded into nutrient broth at 2.10^7 cell ml^−1 and incubated at 37° C. under atmospheric air conditions (that is, 21% oxygen saturation). Four separate test samples of volume 1 ml were prepared by addition at 1 hour of incubation as follows:
1 Peroxynitrite at concentration 100 μM.
2 Peroxynitrite at 100 μM and quercetin (peroxynitrite scavenger) at 100 μM.
3 Xanthine oxidase (53.2 μg) and xanthine at 100 μM.
4 Xanthine oxidase (53.2 μg) and NADH at 100 μM.
Corresponding controls were also prepared, and the growth curves generated over time determined by monitoring absorbance.

S. enteritidis = experiment: Peroxynitrite effect on cell viability (Test 8(a)); assay type: cell-based; conditions: Salmonella enterica
Protocol: Cells cultured as described above were diluted to suitable working concentrations (10^4-10^5 Cells Ml^−1) in sterile phosphate buffered saline (PBS). ONOO^− at a range of concentrations from […] to 0.01 μm was added as a bolus dose to cells and incubated at room temperature for ten minutes. Aliquots were taken from the cell cultures and plated on to nutrient agar and incubated in a warm room at 37° C. overnight. Viable cells formed colonies on the agar and were counted. The number of colonies formed was related to an untreated control and a graph of the results is shown in FIG. 1, which illustrates the effect of ONOO^− on cell viability.

[6] = test system: contaminants of semi-skimmed bovine milk (postulated Lactobacilli sp.); experiment: Peroxynitrite addition to semi-skimmed bovine milk, colony forming units (Test 8(b)); assay type: cell-based; conditions: 4° C., four days
Protocol: Commercially produced bovine milk was purchased in semi-skimmed form. Aliquots were taken on day one of experimentation and plated onto nutrient agar and grown overnight at 37° C. The number of colonies formed following incubation was counted. The remaining milk was divided into three portions after removal of those aliquots. No peroxynitrite was added to the first portion, which was the control. A single bolus dose of 100 μM ONOO^− was added to the second portion on day one, and the third portion was treated by addition of a daily bolus dose of 100 μM ONOO^−. The portions were stored during the four days of the test at a temperature of 4° C. Each day, aliquots were taken from each portion and cultured overnight at 37° C. for viable count determination. […] Although the contaminants were not formally identified, it was postulated that they included at least Lactobacilli sp., that being a cell type often present in milk.

Staphylococcus aureus = experiment: Incubation of Staphylococcus aureus with SIN-1, growth; assay type: cell-based; conditions: in dependence on the amount added
Protocol: Cells cultured as described above were diluted to suitable working concentrations (10^4-10^5 Cells Ml^−1) in sterile phosphate buffered saline (PBS). […] Aliquots were taken from the cell cultures and plated on to nutrient agar and incubated in a warm room at 37° C. overnight. Viable cells formed colonies on the agar and were counted. The number of colonies formed was related to an untreated control and a graph of the results is shown in FIG. 1, which illustrates the effect of ONOO^− on cell viability.

superoxide = experiment: Measurable NO in the XO/hypoxanthine system with superoxide dismutase; assay type: biochemical; conditions: added to the Xo/hypoxanthine system; oxygen 0 to 2%

## c1ccc([I+]c2ccccc2)cc1 [DPI, Diphenyliodonium]
[1]
  NO generation of fresh full fat milk with inhibitor: no detectable NO generation
  inhibition of the increased NO release of milk gone off at 4° C.: not inhibited
[2]
  NO release: 0.00 mV/s
[3]
  inhibition of NO release of 7 days old Cow and Gate formula: not inhibited

## OO [H2O2, hydrogen peroxide]
[4]; S. aureus, 50% growth reduction not observed at the concentration ranges used
  growth inhibition: very limited
Lactobacillus casei 6375; read-out: Half maximal concentration H2O2, Lactobacillus casei, bolus at beginning of logarithmic growth
  IC50: 305 µM
Micrococcus sp
  IC50: 19.5 µM
Bacillus sp
  IC50: 77.6 µM

## O=c1[nH]cnc2nc[nH]c12 [Hypoxanthine, hypoxanthine]
[4]; Staphylococcus, in the presence of 30 μg XO
  growth rate: reduced the growth rate
Lactobacillus casei 6375; Lacticaseibacillus casei, 6375, Lactobacillus, at 30 μg XO, read-out: half maximal hypoxanthine dose
  IC50: 104 µM
[5]
  total number of colonies formed (CFU ml^−1): reduce the total number of colonies formed

## O=c1[nH]c(=O)c2c[nH]nc2[nH]1 [Oxypurinol]
Lactobacillus casei 6375; 30 μg XO and 200 μM hypoxanthine, range of concentrations
  effect on XO/hypoxanthine growth inhibition: reduce the effect of XO/hypoxanthine growth inhibition in a dose dependent manner
Lactobacillus casei 6375; highest concentration, alone
  growth rate of Lactobacillus, added alone: no effect
[1]
  NO generation of fresh full fat milk with inhibitor: no detectable NO generation
  inhibition of the increased NO release of milk gone off at 4° C.: not inhibited
[2]
  NO release: 0.00 mV/s
[3]
  inhibition of NO release of 7 days old Cow and Gate formula: not inhibited

## O=NOO [Peroxynitrite]
[4]; 6751, Staphylococcus aureus, bolus at beginning of logarithmic growth, read-out: Half maximal concentration ONOO -
  IC50: 290 µM
Lactobacillus casei 6375; Lacticaseibacillus casei, 6375, Lactobacillus casei, bolus at beginning of logarithmic growth, read-out: Half maximal concentration ONOO -
  IC50: 55 µM
Escherichia coli NCTC 86; range of concentrations, ten minutes
  effect on cell viability (viable count, FIG. 1): profound inhibitory effect
Escherichia coli NCTC 86; bolus dose, ten minutes at room temperature in PBS, read-out: IC50 (concentration that reduces viability to 50% of control viable count)
  IC50: 1.4 µM
Escherichia coli NCTC 86; value matches Test 8(a) viability IC50, read-out: Half maximal concentration ONOO -
  IC50: 1.4 µM
E. coli
  killing (growth curve): strong killing
S. enteritidis; S. enteritidis, similar conditions, read-out: IC50 (concentration that reduces viability to 50% of control viable count)
  IC50: 2.03 µM
S. enteritidis; Salmonella enteritidis, value matches Test 8(a) viability IC50, read-out: Half maximal concentration ONOO -
  IC50: 2 µM
[6]; daily bolus dose of 100 μM, p<=0.01, also below single dose p<=0.05
  colony forming units (CFU) in milk compared to control: reduced the CFU significantly below control
[6]; single bolus dose of 100 μM on day one, p<=0.01
  colony forming units (CFU) in milk compared to control: reduced the CFU significantly

## N=c1c[n+](N2CCOCC2)[n-]o1 [SIN-1, 3-morpholinosydnonimine]
Staphylococcus aureus
  growth of Staphylococcus aureus: reduced growth

## superoxide dismutase
superoxide
  amount of measurable NO: increase the amount of measurable NO
